Tests used:
[1] = system: normal primary NK cells, pool 2 (3 donors) (IL-2 2.5 ng/mL); assay: drug sensitivity score (DSS) (DSS units); higher = more sensitive; extreme values may be limits of the assay; settings: 72 h
[2] = system: KHYG-1 (IL-2 2.5 ng/mL); assay: as above; settings: 72 h
[3] = system: NKL (IL-2 2.5 ng/mL); assay: as above; settings: 72 h
[4] = system: IMC-1 (IL-2 20 ng/mL); assay: as above; settings: 72 h
[5] = system: normal primary NK cells, pool 1 (3 donors) (IL-2 2.5 ng/mL); assay: as above; settings: 72 h
[6] = system: SNK-6 (IL-2 2.5 ng/mL); assay: as above; settings: 72 h
[7] = system: normal primary NK cells, pool 1 (3 donors), resting (IL-2 0 ng/mL); assay: as above; settings: 72 h
[8] = system: NK-92 (IL-2 2.5 ng/mL); assay: as above; settings: 72 h
[9] = system: NK-YS (IL-2 2.5 ng/mL); assay: as above; settings: 72 h
[10] = system: KAI3 (IL-2 2.5 ng/mL); assay: as above; settings: 72 h
[11] = system: YT (IL-2 2.5 ng/mL); assay: as above; settings: 72 h
[12] = system: DERL-7 (IL-2 2.5 ng/mL); assay: as above; settings: 72 h
[13] = system: normal primary NK cells, pool 3 (3 donors) (IL-2 2.5 ng/mL); assay: as above; settings: 72 h
[14] = system: normal NK cells expanded with K562-aAPC; assay: percent inhibition of viability; higher = more inhibition; settings: 72 h, IL-2 2.5 ng/mL
Description: (§1)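 Drug sensitivity and resistance testing on K562-aAPC-expanded normal NK cells: 5 concentrations (10-fold steps over a 10,000-fold range), 72 h at 37 °C, viability by CellTiter-Glo normalised to DMSO and benzethonium chloride controls; DSS from the fitted curve.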

[15] = system: normal primary NK cells, pool 2 (3 donors) (IL-2 2.5 ng/mL); assay: as above; settings: 72 h
[16] = system: KHYG-1 (IL-2 2.5 ng/mL); assay: as above; settings: 72 h
[17] = system: NKL (IL-2 2.5 ng/mL); assay: as above; settings: 72 h
[18] = system: IMC-1 (IL-2 20 ng/mL); assay: as above; settings: 72 h
[19] = system: normal primary NK cells, pool 1 (3 donors) (IL-2 2.5 ng/mL); assay: as above; settings: 72 h
[20] = system: SNK-6 (IL-2 2.5 ng/mL); assay: as above; settings: 72 h
[21] = system: normal primary NK cells, pool 1 (3 donors), resting (IL-2 0 ng/mL); assay: as above; settings: 72 h
[22] = system: NK-92 (IL-2 2.5 ng/mL); assay: as above; settings: 72 h
[23] = system: NK-YS (IL-2 2.5 ng/mL); assay: as above; settings: 72 h
[24] = system: KAI3 (IL-2 2.5 ng/mL); assay: as above; settings: 72 h
[25] = system: YT (IL-2 2.5 ng/mL); assay: as above; settings: 72 h
[26] = system: DERL-7 (IL-2 2.5 ng/mL); assay: as above; settings: 72 h
[27] = system: normal primary NK cells, pool 3 (3 donors) (IL-2 2.5 ng/mL); assay: as above; settings: 72 h
[28] = system: normal NK cells expanded with K562-aAPC; assay: drug sensitivity score (DSS) (DSS units); higher = more sensitive; extreme values may be limits of the assay; settings: 72 h; IL-2 2.5 ng/mL
Description: as §1

CN1CCC(COc2cnc(-c3cccc(Cn4nc(-c5cccc(C#N)c5)ccc4=O)c3)nc2)CC1 (max concentration tested 1000 nM)
Settings	drug sensitivity score
[1]	0
[2]	0.39
[3]	0.35
[4]	0
[5]	0
[6]	1.09
[7]	0
[8]	0
[9]	0
[10]	0
[11]	0
[12]	2.76
[13]	0
[28]	0

percent inhibition of viability [%]
Settings	0.1 nM	1 nM	10 nM	100 nM	1000 nM
[14]	-4.81	-10.8	-1.01	-5.56	4.27
[15]	-17.1	4.11	-9.87	-10	-13.3
[16]	0.03	-2.13	-6.37	1.52	15.3
[17]	4.34	-14.9	-8.56	-9.54	20.4
[18]	-6.71	-2.19	-0.81	-1.98	-3.26
[19]	-7	-6.88	-13.8	1.64	4.06
[20]	10.8	3.77	-9.85	14	13.7
[21]	-5.12	-27.4	-19.6	3.81	3.64
[22]	-7.1	-4.45	1.23	-11.4	6.42
[23]	-1.64	-6.91	-7.12	-5.26	-5.69
[24]	-0.84	-8.6	-8.84	-7.75	-3.69
[25]	4	0.64	-1.46	-0.52	-0.42
[26]	-4.25	-4.18	3.15	4.81	39.5
[27]	-8.96	-8.97	-7.75	-16	-13.7

CC(C)(C)c1cc(NC(=O)Nc2ccc(-c3cn4c(n3)sc3cc(OCCN5CCOCC5)ccc34)cc2)no1 [Quizartinib] (max concentration tested 1000 nM)
Settings	drug sensitivity score
[1]	0
[2]	4.98
[3]	3.06
[4]	0
[5]	0
[6]	0.72
[7]	0
[8]	2.69
[9]	2.8
[10]	6.21
[11]	2.36
[12]	2.22
[13]	0.01
[28]	0.13

percent inhibition of viability [%]
Settings	0.1 nM	1 nM	10 nM	100 nM	1000 nM
[14]	-5.93	-6.07	-5.11	1.78	12
[15]	-4.07	3.45	0.79	8.48	5.08
[16]	-4.77	-6.69	-1.59	7.07	69.5
[17]	-4.32	-4.59	-3.22	6.3	40.2
[18]	-3.97	-4.91	-0.67	-2.42	-27
[19]	-1.34	14.2	4.45	6.54	7.43
[20]	19.5	-15.2	-9.07	-27.8	31.3
[21]	6.94	18.5	11.5	15.2	11.1
[22]	4.94	6.77	3.37	9.08	32.8
[23]	-4.56	-6.94	-2.6	3.09	45.4
[24]	0.8	-2.84	2.67	15.2	68.6
[25]	-3.18	-4.77	-2.32	8.06	28.5
[26]	4.27	4.47	0.07	4.17	33.4
[27]	-1.63	14.8	1.27	-1.92	11.7

CNC(=O)CN1CCC(Oc2cc3c(Nc4cccc(Cl)c4F)ncnc3cc2OC)CC1 [Sapitinib] (max concentration tested 1000 nM)
Settings	drug sensitivity score
[1]	0
[2]	0
[3]	0
[4]	0.17
[5]	0
[6]	8.21
[7]	0
[8]	0
[9]	0
[10]	0
[11]	0.02
[12]	0
[13]	0
[28]	1.29

percent inhibition of viability [%]
Settings	0.1 nM	1 nM	10 nM	100 nM	1000 nM
[14]	3.94	0.06	-2.58	3.86	22.1
[15]	-5.36	0.45	2.66	4.26	5.15
[16]	0.69	2.55	10.2	2.53	4.41
[17]	-6.69	-1.96	-5.01	0.25	5.26
[18]	0.18	0.99	5.5	4.61	15.1
[19]	3.61	-8.96	0.62	-8.22	4.72
[20]	3.05	16.8	21.3	25.7	25.6
[21]	6.72	-12.5	3.2	-20.9	-10.5
[22]	-3.59	-7.59	7.58	-10.8	6.39
[23]	0.21	0.23	5.94	0.04	5.37
[24]	-6.57	-1.42	0.58	-5.73	11.3
[25]	1.69	2.8	8.28	2.39	14.2
[26]	3.06	0.6	-4.76	-5	-2.82
[27]	-11.4	-8.98	0.1	-3.48	6.33

Cc1cc(C)c(/C=C2\C(=O)Nc3ccccc32)[nH]1 [Semaxanib] (max concentration tested 10000 nM)
Settings	drug sensitivity score
[1]	0
[2]	0
[3]	0
[4]	0
[5]	0
[6]	0
[7]	0
[8]	0
[9]	0.03
[10]	0.08
[11]	0
[12]	0
[13]	0
[28]	0

percent inhibition of viability [%]
Settings	1 nM	10 nM	100 nM	1000 nM	10000 nM
[14]	-3.94	-4.89	-0.87	-2.28	-6.44
[15]	-8.9	-5	-12.5	-15.6	0.7
[16]	-1.36	0.11	0.12	6.34	1.2
[17]	-13.9	-12.4	-11.4	-6.8	-21.5
[18]	-3.23	1.84	-5.66	-0.69	-8.53
[19]	-10.6	-9.74	-0.67	-9.25	-0.4
[20]	11.5	16.6	-2.4	-25	-71.7
[21]	-26.7	-24.9	-16.6	-29.6	-4.81
[22]	-9.95	-0.12	2.69	-5.85	-9.23
[23]	-0.44	2.71	2.82	11.1	7.36
[24]	-2.48	-0.88	2.8	17.6	4.62
[25]	1.76	-2.52	0.26	5.87	-1.2
[26]	-12.8	-10.6	-9.72	-14.2	-12.3
[27]	-10.1	-7.93	-13.2	-15.4	-11

Nc1ncn([C@H]2C[C@H](O)[C@@H](CO)O2)c(=O)n1 [Decitabine] (max concentration tested 10000 nM)
Settings	drug sensitivity score
[1]	1.92
[2]	11.7
[3]	3.12
[4]	6.54
[5]	1.27
[6]	23.5
[7]	1.82
[8]	12.6
[9]	9.23
[10]	21
[11]	5.68
[12]	14.1
[13]	3.32
[28]	5.69

percent inhibition of viability [%]
Settings	1 nM	10 nM	100 nM	1000 nM	10000 nM
[14]	3.63	6.61	11.9	21.8	56.1
[15]	-3.35	-1.69	-11.7	3	32.2
[16]	4.42	1.27	13.6	51.4	89.8
[17]	0.73	9.17	7.62	27.4	15
[18]	6.19	9.72	18.9	18.9	49.6
[19]	8.63	2.5	-2.22	-0.78	30.4
[20]	3.81	14.8	64.3	70.1	78.8
[21]	3.59	-12.2	2.07	-6.83	43.9
[22]	14.1	7.13	28.5	42.4	81.5
[23]	2.7	4.69	16.5	38	64.8
[24]	10.1	26.4	51.8	58.8	73
[25]	9.12	6.63	10.1	24.2	47.4
[26]	0.66	-1.23	21.1	60.8	92.3
[27]	-2.52	-0.43	2.61	5.08	47.6
